Results on 16 molecules are retold here after patent publication US20260217708A1, “FUSED BENZAZEPINE DERIVATIVES FOR USE IN THE TREATMENT OF CANCER AND EPILEPSY” (UCB BIOPHARMA SRL, priority 2023, published 2026).

In test [1] the target is T1, system Xc^− (Homo sapiens, UniProt Q9UPY5).
T1 sequence (Q9UPY5 1-501): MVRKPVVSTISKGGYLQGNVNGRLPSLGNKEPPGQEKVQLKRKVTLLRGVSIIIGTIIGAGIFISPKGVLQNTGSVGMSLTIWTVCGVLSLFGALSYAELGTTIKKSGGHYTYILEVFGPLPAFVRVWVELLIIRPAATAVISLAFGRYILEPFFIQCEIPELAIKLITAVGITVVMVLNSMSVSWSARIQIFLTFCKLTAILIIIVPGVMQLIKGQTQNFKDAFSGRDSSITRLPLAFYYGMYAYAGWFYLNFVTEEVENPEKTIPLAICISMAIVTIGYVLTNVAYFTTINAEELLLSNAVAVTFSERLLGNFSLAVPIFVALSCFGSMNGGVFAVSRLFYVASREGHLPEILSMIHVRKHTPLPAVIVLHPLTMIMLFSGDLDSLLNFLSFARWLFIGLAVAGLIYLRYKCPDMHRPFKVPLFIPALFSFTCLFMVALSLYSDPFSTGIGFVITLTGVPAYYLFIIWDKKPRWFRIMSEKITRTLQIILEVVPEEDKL
T1 sequence (P08195 1-529 partner): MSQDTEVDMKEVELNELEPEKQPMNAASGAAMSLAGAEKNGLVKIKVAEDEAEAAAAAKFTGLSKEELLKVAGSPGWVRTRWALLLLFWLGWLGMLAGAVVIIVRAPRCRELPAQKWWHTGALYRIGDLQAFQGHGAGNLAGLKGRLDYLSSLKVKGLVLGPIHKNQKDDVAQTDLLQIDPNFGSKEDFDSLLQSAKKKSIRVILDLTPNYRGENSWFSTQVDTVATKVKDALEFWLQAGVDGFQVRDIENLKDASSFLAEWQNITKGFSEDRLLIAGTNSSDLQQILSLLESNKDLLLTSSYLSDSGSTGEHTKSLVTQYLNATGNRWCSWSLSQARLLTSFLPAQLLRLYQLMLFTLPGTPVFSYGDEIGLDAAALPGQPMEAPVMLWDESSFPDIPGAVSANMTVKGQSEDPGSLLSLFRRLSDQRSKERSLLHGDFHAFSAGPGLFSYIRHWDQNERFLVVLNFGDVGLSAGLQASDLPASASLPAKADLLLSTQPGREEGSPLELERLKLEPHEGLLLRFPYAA
Put plainly: [^14C]L-Cystine uptake assay. It is filed as cell-based. The arrangement: endogenous in cells; host or cells: H4 cells. The settings on record: H4 cells, sodium-free HEPES buffer, 0.5 μM L-[14C]Cystine and 4.5 μM L-Cystine, 1 hour at 37° C.; read-out: pIC50 [^14C] L-Cystine uptake assay (converted). A digest of the protocol:
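H4 cells at 5×10^4 cells/well in sodium-free HEPES buffer were preincubated 15 min with compounds (1% DMSO). Uptake of 0.5 μM [14C]L-cystine plus 4.5 μM unlabelled L-cystine ran 1 hour at 37° C on scintillating plates. IC50 was set between 1% DMSO and 50 μM Erastin controls and expressed as pIC50.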

Test [2] has as its target T1, system Xc^−. In words: Cystine-induced glutamate release assay. Type of test: cell-based. Details: endogenous in cells; host or cells: H4 cells. The settings on record: H4 cells, sodium-free HEPES buffer, 50 μM L-Cystine, 2 hours, Amplex Red glutamate readout; read-out: pIC50 Cystine-induced glutamate release assay (converted). The essentials:
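H4 cells in sodium-free HEPES buffer (pH 7.4), 2 days after plating; glutamate release induced with 50 μM L-cystine plus compound (1% DMSO), 2 h at 37 °C. Supernatant glutamate measured by Amplex Red fluorescence; IC50/pIC50 derived between 1% DMSO and 50 μM erastin controls.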

SMILES strings stand for the structures. Where only a bound is given, the exact number is not on record here.

With `C[C@H]1C(=O)N(CC(=O)Nc2ccc(C(F)F)cc2)c2cc(N3CC[C@H](O)C3)nc(F)c2-c2cccnc21` (single isomer, unassigned) [#279, N-[4-(difluoromethyl)phenyl]-2-[3-fluoro-5-[3-hydroxypyrrolidin-1-yl]-10-methyl-9-oxo-4,8,12-triazatricyclo[9.4.0.0^2,7]pentadeca-1(15),2,4,6,11,13-hexaen-8-yl]acetamide], the IC50 in test [1] and in test [2] was below 15.8 nM each time.

With `CC1C(=O)N(CC(=O)Nc2ccc(C(F)F)cc2)c2cc(N3CC(F)(F)C3)nc(F)c2-c2cccnc21` (single isomer, unassigned) [#280, 2-[5-(3,3-difluoroazetidin-1-yl)-3-fluoro-10-methyl-9-oxo-4,8,12-triazatricyclo[9.4.0.0^2,7]pentadeca-1(11),2(7),3,5,12,14-hexaen-8-yl]-N-[4-(difluoromethyl)phenyl]acetamide], the IC50 in test [1] and in test [2] was below 15.8 nM throughout.

For the molecule `CC1C(=O)N(CC(=O)Nc2ccc(C(F)F)cc2)c2cc(N3CC4(C3)CC(F)(F)C4)nc(F)c2-c2cccnc21` (single isomer, unassigned) [#281, 2-[5-(6,6-difluoro-2-azaspiro[3.3]heptan-2-yl)-3-fluoro-10-methyl-9-oxo-4,8,12-triazatricyclo[9.4.0.0^2,7]pentadeca-1(15),2,4,6,11,13-hexaen-8-yl]-N-[4-(difluoromethyl)phenyl]acetamide], the IC50 in test [1] and in test [2] was 39.8 to 100 nM each time.

With `CC1C(=O)N(CC(=O)Nc2ccc(C(F)F)cc2)c2cc(N3CC4(CCOC4)C3)nc(F)c2-c2cccnc21` (single isomer, unassigned) [#282, N-[4-(difluoromethyl)phenyl]-2-[3-fluoro-10-methyl-5-(6-oxa-2-azaspiro[3.4]octan-2-yl)-9-oxo-4,8,12-triazatricyclo[9.4.0.0^2,7]pentadeca-1(15),2,4,6,11,13-hexaen-8-yl]acetamide], the results for the IC50 in test [1] and in test [2] were below 15.8 nM and 15.8 to 39.8 nM, respectively.

With `CC1C(=O)N(CC(=O)Nc2ccc(C(F)F)cc2)c2cc(N3CC4(CC4)C3)nc(F)c2-c2cccnc21` (single isomer, unassigned) [#283, 2-[5-(5-azaspiro[2.3]hexan-5-yl)-3-fluoro-10-methyl-9-oxo-4,8,12-triazatricyclo[9.4.0.0^2,7]pentadeca-1(15),2,4,6,11,13-hexaen-8-yl]-N-[4-(difluoromethyl)phenyl]acetamide], the IC50 is 15.8 to 39.8 nM in test [1] and below 15.8 nM in test [2].

Regarding `CC1C(=O)N(CC(=O)Nc2ccc(C(F)F)cc2)c2cc(N3CC4(COC4)C3)nc(F)c2-c2cccnc21` (single isomer, unassigned) [#284, N-[4-(difluoromethyl)phenyl]-2-[3-fluoro-10-methyl-5-(2-oxa-6-azaspiro[3.3]heptan-6-yl)-9-oxo-4,8,12-triazatricyclo[9.4.0.0^2,7]pentadeca-1(15),2,4,6,11,13-hexaen-8-yl]acetamide], the IC50 in test [1] and in test [2] was below 15.8 nM in each case.

For the molecule `CC1C(=O)N(CC(=O)Nc2ccc(C(F)F)cc2)c2cc(N3CC4(C3)CC4(F)F)nc(F)c2-c2cccnc21` (single isomer, unassigned) [#286, 2-[5-(2,2-difluoro-5-azaspiro[2.3]hexan-5-yl)-3-fluoro-10-methyl-9-oxo-4,8,12-triazatricyclo[9.4.0.0^2,7]pentadeca-1(15),2,4,6,11,13-hexaen-8-yl]-N-[4-(difluoromethyl)phenyl]acetamide], the IC50 in test [1] and in test [2] was below 15.8 nM throughout.

`CC1C(=O)N(CC(=O)Nc2ccc(C(F)F)cc2)c2cc(N3[C@@H]4CCC[C@H]3C4)nc(F)c2-c2cccnc21` (single isomer, unassigned) [#287, 2-[5-(6-azabicyclo[3.1.1]heptan-6-yl)-3-fluoro-10-methyl-9-oxo-4,8,12-triazatricyclo[9.4.0.0^2,7]pentadeca-1(15),2,4,6,11,13-hexaen-8-yl]-N-[4-(difluoromethyl)phenyl]acetamide]: the IC50 in test [1] is below 15.8 nM; in test [2], 15.8 to 39.8 nM.

As to `CC1C(=O)N(CC(=O)Nc2ccc(C(F)F)cc2)c2cc(N3CC(C)(F)C3)nc(F)c2-c2cccnc21` (single isomer, unassigned) [#288, N-[4-(difluoromethyl)phenyl]-2-[3-fluoro-5-(3-fluoro-3-methyl-azetidin-1-yl)-10-methyl-9-oxo-4,8,12-triazatricyclo[9.4.0.0^2,7]pentadeca-1(15),2,4,6,11,13-hexaen-8-yl]acetamide], the IC50 in test [1] and in test [2] was below 15.8 nM each time.

For `C[C@H]1C(=O)N(CC(=O)Nc2ccc(C(F)F)cc2)c2cc(N3CC4C(C3)C4(F)F)nc(F)c2-c2cccnc21` (single isomer, unassigned) [#289, 2-[5-(6,6-difluoro-3-azabicyclo[3.1.0]hexan-3-yl)-3-fluoro-10-methyl-9-oxo-4,8,12-triazatricyclo[9.4.0.0^2,7]pentadeca-1(11),2(7),3,5,12,14-hexaen-8-yl]-N-[4-(difluoromethyl)phenyl]acetamide], the IC50 in test [1] is below 15.8 nM; in test [2], 15.8 to 39.8 nM.

In the case of `CC1C(=O)N(CC(=O)Nc2ccc(C(F)F)cc2)c2cc(N3C[C@H]4C[C@@H](C3)C4(F)F)nc(F)c2-c2cccnc21` (single isomer, unassigned) [#290, 2-[5-(6,6-difluoro-3-azabicyclo[3.1.1]heptan-3-yl)-3-fluoro-10-methyl-9-oxo-4,8,12-triazatricyclo[9.4.0.0^2,7]pentadeca-1(11),2(7),3,5,12,14-hexaen-8-yl]-N-[4-(difluoromethyl)phenyl]acetamide], the IC50 is 15.8 to 39.8 nM in test [1] and 39.8 to 100 nM in test [2].

Consider `CC1C(=O)N(CC(=O)Nc2ccc(C(F)F)cc2)c2cc(N3CC(F)(F)C3)nc(F)c2-c2ccc(F)cc21` (single isomer, unassigned) [#291, 2-[3-(3,3-difluoroazetidin-1-yl)-1,9-difluoro-7-methyl-6-oxo-7H-pyrido[4,3-d][3]benzazepin-5-yl]-N-[4-(difluoromethyl)phenyl]acetamide], for which the IC50 in test [1] is 15.8 to 39.8 nM; in test [2] it was below 15.8 nM.

In the case of `CC1C(=O)N(CC(=O)Nc2ccc(Cl)c(F)c2)c2cc(N3CC(F)(F)C3)ncc2-c2cccnc21` (single isomer, unassigned) [#293, N-(4-chloro-3-fluoro-phenyl)-2-[5-(3,3-difluoroazetidin-1-yl)-10-methyl-9-oxo-4,8,12-triazatricyclo[9.4.0.0^2,7]pentadeca-1(15),2,4,6,11,13-hexaen-8-yl]acetamide], the IC50 in test [1] is 15.8 to 39.8 nM; in test [2] it was 39.8 to 100 nM.

Regarding `COc1nccc2c1-c1cccnc1C(C)C(=O)N2CC(=O)Nc1ccc(Cl)c(F)c1` (single isomer, unassigned) [#297, N-(4-chloro-3-fluoro-phenyl)-2-[3-methoxy-10-methyl-9-oxo-4,8,12-triazatricyclo[9.4.0.0^2,7]pentadeca-1(15),2(7),3,5,11,13-hexaen-8-yl]acetamide], the IC50 in test [1] and in test [2] was below 15.8 nM throughout.

On to `COc1nccc2c1-c1cccnc1C(C)C(=O)N2CC(=O)Nc1ccc(C(F)F)cc1` (single isomer, unassigned) [#298, N-[4-(difluoromethyl)phenyl]-2-[3-methoxy-10-methyl-9-oxo-4,8,12-triazatricyclo[9.4.0.0^2,7]pentadeca-1(15),2(7),3,5,11,13-hexaen-8-yl]acetamide], for which the IC50 in test [1] and in test [2] was below 15.8 nM in each case.

In the case of `COc1cc2c(c(C)n1)-c1cccnc1C(C)C(=O)N2CC(=O)Nc1ccc(C(F)F)cc1` (single isomer, unassigned) [#299, N-[4-(difluoromethyl)phenyl]-2-[5-methoxy-3,10-dimethyl-9-oxo-4,8,12-triazatricyclo[9.4.0.0^2,7]pentadeca-1(15),2(7),3,5,11,13-hexaen-8-yl]acetamide], the IC50 in test [1] and in test [2] was below 15.8 nM in each case.
